Consider 1 compound from patent US20250090596A1, “MODULATING INFLAMMATION ASSOCIATED WITH FOREIGN BODY RESPONSE” (CRISPR Therapeutics AG, priority 2023, published 2025).

Data set [1] is classed as in vivo, Rat (Rattus norvegicus).
Text: Prior to implant, 30 male athymic nude rats (described in Table 19) were randomly assigned to three groups of ten animals each, and unbiased weight distribution was confirmed. […] At implant, each animal was surgically implanted subcutaneously with two VCTX test articles. The animals then continued to receive their respective chow. Group 1 and 3 animals received their respective chow for 12 weeks, while Group 2 animals only tolerated the tacrolimus-containing chow for 3 weeks. […] At 12 weeks, all animals were switched to standard rodent chow (Teklad 2920X, Envigo).
The test system of data set [2] is athymic rats. Particulars: rat, in vivo.
Text: (§1) The administration of the calcineurin inhibitors was achieved through formulation into the chow fed to the animals (athymic rats).
Data set [3] relates to athymic rats. Nature of the data set: Previous in vivo sensitivity studies of a similar combination product with unmodified cells. Particulars: unmodified-cell combination product, drug in chow.
Text: as §1
The next data set has as its system PEC-211 cells. Nature of the data set: In vitro differentiation of PEC-211 to stage 6 in presence of Tacrolimus, flow cytometry. The data set is classed as cell-based, human. Particulars: 0.1 μM, 10 days. Here is the method:
Evaluation of the PEC-211 cells in the presence of Tacrolimus was performed in vitro. Stage 4 Pancreatic progenitor PEC-211 cells were further differentiated to stage 6 to produce matured islet like cell population in presence of 0.1 μM of Tacrolimus for 10 days. Control PEC-211 cells were not treated with Tacrolimus.

The test system of the next data set is VCTX211 implants. Put plainly: GSIS test of VCTX211 implants under calcineurin inhibitor chow.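 Note: athymic nude rats each carrying two subcutaneous VCTX211-loaded perforated delivery devices, fed calcineurin inhibitor or control chow.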 The data set is classed as in vivo, Rat (Rattus norvegicus).
Setting [4] is: individual animals, serum, 90 min after glucose.
The mark [5] stands for this setting: individual animals, serum, fasted.

The structures appear in SMILES notation. Values joined by “and” are separate entries in the source; they are usually repeats but may differ in a detail not shown here. Identical values can stand only once.

Text for VCTX211 implants: Provided in this Example are in vivo efficacy evaluations of VCTX211 combination products (e.g., genetically modified cells loaded into a perforated delivery device) to assess potential sensitivity of exposure to calcineurin inhibitors. In this study, athymic nude rats each received two implants of compositions comprising genetically modified cells disclosed herein (e.g., VCTX211) each.
VCTX211 test articles (e.g., perforated delivery devices loaded with genetically modified cells disclosed herein) were first generated with pancreatic endoderm cell (PEC-211; e.g., comprising B2M KO and KI of TNFAIP3 and PD-L1; and KO of TXNIP and KI of MANF and HLA-E) aggregates derived from VCTX211 stem cell progenitor cells. To do so, the thaw and culture of PEC-211 aggregates was first performed in roller bottles. On the third day post-thaw, 20 μL aliquots of settled pellet volume (approximately 9×10^6 cells) were prepared and loaded into sterilized PD20 devices (e.g., perforated cell delivery device) to produce VCTX test articles. […] After formulation, test articles were maintained at room temperature in 10 mL storage tubes with media for 2 days.
Prior to implant, 30 male athymic nude rats (described in Table 19) were randomly assigned to three groups of ten animals each, and unbiased weight distribution was confirmed. […] At implant, each animal was surgically implanted subcutaneously with two VCTX test articles. The animals then continued to receive their respective chow. […] At 12 weeks, all animals were switched to standard rodent chow (Teklad 2920X, Envigo).

Take `C=CC[C@@H]1/C=C(\C)C[C@H](C)C[C@H](OC)[C@H]2O[C@@](O)(C(=O)C(=O)N3CCCC[C@H]3C(=O)O[C@H](/C(C)=C/[C@@H]3CC[C@@H](O)[C@H](OC)C3)[C@H](C)[C@@H](O)CC1=O)[C@H](C)C[C@@H]2OC` [TAC, tacrolimus]: in data set [1] (by 3 weeks, group of 10), the “animals died or euthanized in extremis” value was found to be 3 animals. Also, the “average loss of body weight” value in data set [1] (rat, in vivo) came to 8%. In the data set with athymic rats [2], the “dose-limiting finding preventing increased exposure” value was “toxicity resulting in inappetence and severe weight loss”; the “exposure levels versus target levels for prophylactic use in clinical organ transplantation” value is “below target levels”. Besides, the “effect on development or function of beta cells derived from the implants” value with athymic rats [3] is listed as “did not appear to affect”. Also, the “effect on in vitro differentiation to islet cells” value in the data set on PEC-211 cells is “did not affect”. Moreover, in the data set with PEC-211 cells (Stage 6 cells, flow cytometry), the “CHGA-NKX6.1+ PDX1+ or- (Pancreatic Progenitor)” value amounted to 16.9, the “Total CHGA+” value is 76.3, the “Total GCG+” value amounted to 36.6 and the “Total INS+” value turned out to be 70.4. Moreover, the “Total NKX6.1+” value in the data set on PEC-211 cells (Stage 6 cells, flow cytometry) is given as 48.7. Moreover, in the data set on VCTX211 implants (cyclosporine A 12 weeks, tacrolimus 3 weeks), the “functional development of VCTX211 grafts, evaluated with GSIS tests, compared to control animals” value was “not affected”. Further, the “C-peptide, 16 Weeks, 60 min” value in the data set on VCTX211 implants (individual animals, serum, 60 min after glucose) is 1131 pM and 1798 pM and 720 pM and 1365 pM and 3073 pM and 700 pM. Besides, in the data set on VCTX211 implants (setting [4]), the “C-peptide, 12 Weeks, 90 min” value was 1933 pM and 1504 pM and 627 pM and 428 pM and 1178 pM and 1271 pM; the “C-peptide, 16 Weeks, 90 min” value is 1312 pM and 1545 pM and 1271 pM and 1207 pM and 1782 pM and 1140 pM. In addition, in the data set with VCTX211 implants (setting [5]), the “C-peptide, 12 Weeks, Fast” value was 113 pM and 123 pM and 119 pM and 107 pM and 147 pM and 109 pM; the “C-peptide, 16 Weeks, Fast” value was 282 pM and 253 pM and 273 pM and 227 pM and 302 pM and 219 pM.
